*1 amine or outer side, *2 acyl side, *3 side chain or, on linkers, in order; H or OH if unused. Where a SMILES comes first, the peptide text is derived from it. Bridges are numbered along the chain shown (N, C = ends). Roman numbers before positions name the chains, in order. [ ]: non-standard residue; d: D form. Actinocin(1to9) = Cc1c2oc3c(C)ccc(C(=O)[*:2])c3nc-2c(C(=O)[*:1])c(N)c1=O; NMeV = CN[C@H](C(=O)O)C(C)C; Sar = CNCC(=O)O
How the values were obtained:
[1] = system: NUGC; experiment: Cytotoxicity against human NUGC cells assessed as cell growth at 10 uM after 3 to 24 hrs by MTS assay; format: functional; conditions: read-out: Activity
[2] = system: NUGC; experiment: Cytotoxicity against human NUGC cells assessed as cell growth at 5 uM after 3 to 24 hrs by MTS assay; format: functional; conditions: read-out: Activity

Row | Structure (SMILES) | growth at 10 µM [1] | growth at 5 µM [2]
1 | CC(C)=CC(=O)O[C@@H]1/C=C/[C@@](C)(C/C=C/C(C)(C)O)C/C=C(/CO)C(=O)/C=C/[C@@]1(C)O [VABSANOL A] | 15% | 
2 | C=C(C)[C@@H]1CC[C@]2(C(=O)O)CC[C@]3(C(=O)O)[C@H](CC[C@@H]4[C@@]5(C)CCC(=O)C(C)(C)[C@@H]5[C@H](O)C[C@]43C)[C@@H]12 | 20% | 
3 | C=C(C)C(O)CC[C@]1(C)/C=C/[C@@H](OC(=O)C=C(C)C)[C@](C)(O)/C=C/C(=O)/C(CO)=C\C1 (stereo not given in full) [VIBSANOL B] | > 50% | 
4 | Cc1c2oc3c(C)ccc(C(=O)N[C@@H]4C(=O)N[C@H](C(C)C)C(=O)N5CCC[C@H]5C(=O)N(C)CC(=O)N(C)[C@@H](C(C)C)C(=O)O[C@@H]4C)c3nc-2c(C(=O)N[C@@H]2C(=O)N[C@H](C(C)C)C(=O)N3CCC[C@H]3C(=O)N(C)CC(=O)N(C)[C@@H](C(C)C)C(=O)O[C@@H]2C)c(N)c1=O [DACTINOMYCIN] (I: T[dV]P[Sar][NMeV] / II: T[dV]P[Sar][NMeV]; ester I:1-I:C, II:1-II:C; linker I:N-II:N via Actinocin(1to9)) |  | 0%
5 | C=C(C)[C@@H]1CC[C@]2(C(=O)O)CC[C@]3(C(=O)O)[C@H](CC[C@@H]4[C@@]5(C)CCC(=O)C(C)(C)[C@@H]5[C@@H](O)C[C@]43C)[C@@H]12 | > 50% | 
